# Data: PMC12544700, “Identification of a Small Secretoneurin Derivative That Inhibits CaMKIIδ Activity” (Journal of Cellular and Molecular Medicine, 2025)
# Peptide text beside a SMILES is read from it. * marks the point of attachment. Biotin = O=C1N[C@H]2[C@H](CS[C@H]2CCCCC(=O)*)N1; Ahx = NCCCCCC(=O)O
# Tested on: adult rat cardiomyocytes
# Assay: Ca2+ imaging (sparks, waves, transients) with ISO stimulation
# Format: cell-based
# Settings: ISO 100 nM
# Experimental: Male Wistar rats (Janvier, France) weighing ~300 g were sedated in an anaesthesia chamber by inhalation of 5% isoflurane and 95% O2. The heart was excised under deep surgical anaesthesia, cannulated, and then retrogradely perfused through the aorta on a modified Langendorff setup with cell isolation solution containing (in mM, pH adjusted to 7.4, 37°C): NaCl 130, Hepes 25, D‐glucose 22, KCl 5.4, MgCl2 0.5, NaH2PO4 0.4, and a flow rate of 4 mL/min. After the heart was cleaned of blood, collagenase type II (2 mg/mL, Worthington Biochemical Corp, Lakewood, NJ, USA) was added to the perfusate, and the hearts digested for ~10 min. Following digestion, hearts were cut down, and the left ventricle dissected into pieces, which were transferred into 10 mL cell isolation solution with 250 μL BSA (40 mg/mL) and ~0.2 mg Deoxyribonuclease I (Worthington Biochemical Corporation, Lakewood, NJ, USA). After light agitation (~2 min), the supernatant was filtered (200 μm nylon mesh), and isolated cardiomyocytes were allowed to sediment by gravity. The cardiomyocytes were then washed in isolation buffer containing 1 mg/mL BSA, with a stepwise increase in Ca^2+ concentration up to 0.2 mM. Animal experiments were approved by the Norwegian Research Authority (FOTS ID: 30114). Adult rat cardiomyocytes were treated with 10 μM of SN, SN‐db‐short or scram in 0.2 mM Ca^2+ cell isolation solution for 1 h. These loading concentrations are higher than those used in our previous studies of SN, where we had sought to examine endogenous, circulating levels, rather than potentially therapeutic levels applied exogenously. […] Ca^2+ transients were recorded in linescan mode using a Zeiss LSM 7 Live confocal microscope (Jena, Germany), at a frame rate of 1.5 ms and a pixel size of 0.16 μm. These recordings were normalised to resting fluorescence values to create F/F0 images and assess Ca^2+ transient amplitude. The rate of Ca^2+ transient decline was assessed by measurements of the decay time constant (Tau). Spontaneous sparks and waves were measured during a 9 s pause in the electrical excitation. […]
smiles,measurement,setting,value
CC(C)C[C@H](NC(=O)[C@H](CCC(=O)O)NC(=O)[C@H](CCC(N)=O)NC(=O)[C@H](Cc1ccccc1)NC(=O)[C@H](Cc1ccccc1)NC(=O)[C@H](CO)NC(=O)[C@H](CCC(=O)O)NC(=O)[C@H](Cc1ccccc1)NC(=O)[C@@H](NC(=O)[C@H](C)NC(=O)[C@H](CC(C)C)NC(=O)[C@H](CO)NC(=O)[C@H](CCC(N)=O)NC(=O)[C@@H]1CCCN1C(=O)[C@@H](NC(=O)[C@H](Cc1ccc(O)cc1)NC(=O)[C@H](CCC(N)=O)NC(=O)[C@H](CCC(=O)O)NC(=O)CCCCCNC(=O)CCCC[C@@H]1SC[C@@H]2NC(=O)N[C@@H]21)[C@@H](C)O)[C@@H](C)O)C(=O)NCC(=O)N[C@@H](CCCCN)C(=O)O [SN‐db‐short] ({Biotin-Ahx}-EQYTPQSLATFESFFQELGK-OH; N-terminus and C-terminus assumed),ISO-induced increase of Ca2+ transient amplitude and acceleration of Ca2+ transient decay,"10 μM peptide 1 h, field stimulation 1 Hz, Figure 5B–D, n = 22–73, 3–6 rats",significantly attenuated
same,Ca2+ spark incidence under ISO,"10 μM peptide 1 h pre-treatment, 9 s pause after 1 Hz pacing, Figure 4D, n = 35–85 cells from 3 to 6 rats",strong reduction
same,Ca2+ wave incidence under ISO,"10 μM peptide 1 h pre-treatment, 9 s pause after 1 Hz pacing, Figure 4E, n = 35–66 cells from 3 to 5 rats",strong reduction
